Data as given in article PMC11487561 (ACS Chemical Neuroscience, 2024).

Columns and labels:
[1] = Binding in plasma from human (equilibrium dialysis); format: in vitro ADME; details: human, plasma, fraction unbound; equilibrium dialysis; read-out: human fu,plasma
Experimental: (§1) Binding in plasma from rat and human.
(§2) Determination of compounds’ fraction unbound (f u) in plasma from rat and human was conducted in vitro via equilibrium dialysis using HTDialysis membrane plates. Dialysis membranes (four paired strips per HTD assay) were hydrated as described by the manufacturer and inserted into the HTD plate, which was assembled and prepared for sample addition by the dispensing of blank buffer (DPBS, 100 µL/well) into the ‘top half’ of each membrane-split well. Each compound was diluted into plasma from each species (5 µM final concentration), which was aliquoted in triplicate to the ‘bottom half’ of the prepared HTD plate wells. The HTD plate was sealed and incubated for 6 hours at 37 °C. Following incubation, each well (both top and bottom halves) were transferred (20 µL) to the corresponding wells of a 96-shallow-well (V-bottom) plate. The daughter plates were then matrix-matched (buffer side wells received equal volume of plasma, and plasma side wells received equal volume of buffer), and extraction solution (120 µL; acetonitrile containing 50 nM carbamazepine as IS) was added to all wells of both daughter plates to precipitate protein and extract test article. The plates were then sealed and centrifuged (3500 rcf) for 10 minutes at ambient temperature. Supernatant (60 µL) from each well of the daughter plates was then transferred to the corresponding wells of new daughter plates (96-shallow-well, V bottom) containing water (Milli-Q, 60 µL/well), and the plates were sealed in preparation for LC-MS/MS analysis (see below). fu was calculated as (analyte to IS MS peak area ratio from Trans-buffer side) / (analyte to IS MS peak area ratio from Cis-plasma side). Mean values for each species were calculated from 3 replicates.

In vivo rat iv/po PK = details: male, Sprague-Dawley, plasma, rat (SD); for bioavailability: rat, po
Experimental: Intravenous pharmacokinetics and plasma-brain level determination (IV PK PBL) VU6016235 […]
Dawley rats (n = 1; 342 gram body weights) via injection into a surgically-implanted jugular vein catheter. […] Blood samples were collected serially from a surgically implanted carotid artery catheter in each animal over multiple post-administration time points (0.033, 0.117, 0.25, 0.5, 1, 2, 4, 7, and 24 hours) into chilled, K2EDTA anticoagulant-fortified tubes and immediately placed on wet ice. […]
For PO PK studies, VU6016235 was formulated in 10% Tween 80 in water and administered orally as a single dose of 10 mg/kg to male Sprague Dawley rats (10 ml/kg, n=2) that were fasted overnight. […]
anticoagulant-fortified tubes and immediately placed on wet ice. The blood samples were then centrifuged (1700 rcf, 5 minutes, 4 °C) in order to obtain plasma samples, which were stored at -80 °C until analysis […]
Samples preparation for bioanalysis
Plasma samples from the in-life phase of the study were thawed at ambient temperature (benchtop), and then aliquots (20 µL per sample) were transferred to a 96-shallow-well (V-bottom) plate. Matrix-matched quality control (QC) samples and a standard curve of […] (1 mg/mL DMSO stock solution) were prepared in blank rat plasma (K2EDTA-treated) or blank brain homogenate via serial dilution and transferred (20 µL each) to the plate along with multiple blank plasma and brain homogenate samples. Acetonitrile (120 µL) containing IS (10 nM carbamazepine) was added to each well of the plate to precipitate protein. The plate was then centrifuged (4000 rcf, 5 minutes, ambient temperature), and resulting supernatants (60 µL each) were transferred to a new 96-shallow-well (V-bottom) plate containing an equal volume (60 µL per well) of water (Milli-Q purified). […]
The plasma standard curve and QCs were used for compounds quantitation in brain.
as §1, §2

Endothelin ETA = target: T1, Endothelin ETA (Homo sapiens, UniProt P25101); assay: Lead Profiling Screen – Eurofins Panlabs; format: binding; details: read-out: % inh at 10 μM
T1 construct: Eurofins Panlabs (contract screen)
T1 sequence (P25101 21-427): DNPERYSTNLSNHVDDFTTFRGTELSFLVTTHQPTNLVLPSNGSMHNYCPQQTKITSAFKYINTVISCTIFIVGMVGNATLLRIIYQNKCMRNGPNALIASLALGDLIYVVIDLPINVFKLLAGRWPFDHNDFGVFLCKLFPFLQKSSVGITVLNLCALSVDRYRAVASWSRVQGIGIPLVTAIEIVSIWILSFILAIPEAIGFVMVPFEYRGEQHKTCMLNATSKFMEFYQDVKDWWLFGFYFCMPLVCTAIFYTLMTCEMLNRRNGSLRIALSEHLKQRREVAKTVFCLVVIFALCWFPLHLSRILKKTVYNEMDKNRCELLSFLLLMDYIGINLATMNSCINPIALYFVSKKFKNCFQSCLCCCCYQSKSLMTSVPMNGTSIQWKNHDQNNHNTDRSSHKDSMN

Potassium Channel [KATP] = Potassium Channel [KATP] (Cricetus cricetus, UniProt Q09427); assay: Lead Profiling Screen – Eurofins Panlabs; format: binding, hamster; details: read-out: % inh at 10 μM
Sequence of Potassium Channel [KATP] (Q09427 whole entry): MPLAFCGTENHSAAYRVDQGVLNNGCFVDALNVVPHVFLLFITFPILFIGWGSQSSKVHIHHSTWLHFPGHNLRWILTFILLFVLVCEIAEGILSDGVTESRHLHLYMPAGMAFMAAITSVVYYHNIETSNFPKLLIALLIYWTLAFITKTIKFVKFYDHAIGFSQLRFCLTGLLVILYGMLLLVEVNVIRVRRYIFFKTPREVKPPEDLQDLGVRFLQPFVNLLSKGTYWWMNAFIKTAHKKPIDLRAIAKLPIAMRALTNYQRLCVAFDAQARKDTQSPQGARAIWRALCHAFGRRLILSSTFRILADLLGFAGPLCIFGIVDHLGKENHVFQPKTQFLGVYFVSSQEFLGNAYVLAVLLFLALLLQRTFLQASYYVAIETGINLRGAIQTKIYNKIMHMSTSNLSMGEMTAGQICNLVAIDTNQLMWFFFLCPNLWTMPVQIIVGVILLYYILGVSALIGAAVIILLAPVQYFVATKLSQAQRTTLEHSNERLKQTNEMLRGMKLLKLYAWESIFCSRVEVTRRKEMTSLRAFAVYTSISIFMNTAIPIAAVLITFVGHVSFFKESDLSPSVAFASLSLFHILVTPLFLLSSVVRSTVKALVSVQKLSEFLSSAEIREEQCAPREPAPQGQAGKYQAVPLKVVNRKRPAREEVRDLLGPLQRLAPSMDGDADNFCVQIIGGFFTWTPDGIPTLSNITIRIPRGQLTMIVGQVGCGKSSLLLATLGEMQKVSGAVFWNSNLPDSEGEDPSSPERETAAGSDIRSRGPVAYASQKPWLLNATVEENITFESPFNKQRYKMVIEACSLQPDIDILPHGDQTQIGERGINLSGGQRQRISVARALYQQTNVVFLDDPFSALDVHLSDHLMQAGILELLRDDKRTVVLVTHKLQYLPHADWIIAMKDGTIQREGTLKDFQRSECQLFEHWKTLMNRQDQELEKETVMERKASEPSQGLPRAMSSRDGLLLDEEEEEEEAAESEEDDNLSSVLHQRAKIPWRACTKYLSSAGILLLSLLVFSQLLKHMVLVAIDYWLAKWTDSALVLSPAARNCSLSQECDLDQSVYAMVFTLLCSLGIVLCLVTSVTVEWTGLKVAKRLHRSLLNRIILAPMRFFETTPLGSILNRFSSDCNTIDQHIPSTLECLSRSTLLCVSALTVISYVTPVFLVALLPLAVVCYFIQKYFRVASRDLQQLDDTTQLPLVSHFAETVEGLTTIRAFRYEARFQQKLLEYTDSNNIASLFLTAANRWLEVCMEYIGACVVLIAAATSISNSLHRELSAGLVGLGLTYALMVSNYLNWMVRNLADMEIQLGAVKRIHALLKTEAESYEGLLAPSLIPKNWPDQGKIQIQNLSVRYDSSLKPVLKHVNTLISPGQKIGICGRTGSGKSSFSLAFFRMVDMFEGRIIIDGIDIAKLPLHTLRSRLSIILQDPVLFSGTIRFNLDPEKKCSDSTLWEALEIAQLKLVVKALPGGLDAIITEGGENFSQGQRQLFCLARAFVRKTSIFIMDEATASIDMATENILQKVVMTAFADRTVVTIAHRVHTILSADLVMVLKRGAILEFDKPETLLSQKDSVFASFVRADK

Purinergic P2Y = assay: Lead Profiling Screen – Eurofins Panlabs; format: binding, rat
Transporter, GABA = assay: Lead Profiling Screen – Eurofins Panlabs; format: binding, rat

SMILES: Cc1nc(C)c2c(n1)sc1c(NCc3ccc(C(C)(C)O)cc3)nccc12 [22g]
- fraction unbound at 6 h, 5 µM [1]: 0.014
- MRT (In vivo rat iv/po PK; iv 1.0 mg/kg): 4.3 h
- half-life (In vivo rat iv/po PK; iv 1.0 mg/kg): 3.4 h
- clearance (In vivo rat iv/po PK; iv 1.0 mg/kg, read-out: CLp): 4.9 mL/min/kg
- Vd (In vivo rat iv/po PK; iv 1.0 mg/kg, read-out: Vss): 1.3 L/kg
- AUC(0-inf) (In vivo rat iv/po PK; po 3.0 mg/kg): 8410 ng·h/mL
- Cmax (In vivo rat iv/po PK; po 3.0 mg/kg): 657 ng/mL
- Tmax (In vivo rat iv/po PK; po 3.0 mg/kg): 3 h
- AUC(0-inf) (In vivo rat iv/po PK; po 30.0 mg/kg): 59200 ng·h/mL
- Cmax (In vivo rat iv/po PK; po 30.0 mg/kg): 4460 ng/mL
- Tmax (In vivo rat iv/po PK; po 30.0 mg/kg): 5 h
- bioavailability (In vivo rat iv/po PK; 3 mg/kg, po 3.0 mg/kg): ≥ 100%
- bioavailability (In vivo rat iv/po PK; 30 mg/kg, po 30.0 mg/kg): 84%
- inhibition at 10 µM (Endothelin ETA): -2%
- inhibition at 10 µM (Potassium Channel [KATP]): 4%
- % inh at 10 μM (Purinergic P2Y): 9%
- % inh at 10 μM (Transporter, GABA): 0%
